{"source": "patent US8883792B2", "about": "“Substituted isoquinoline derivative” (D. Western Therapeutics Institute, Inc., priority 2010, dated 2014)", "note": "Where a name gives a salt, the structure may show the parent alone.", "data": [{"system": "rabbits (New Zealand White)", "assay": "Ocular hypotensive effect in rabbits", "assay_type": "in vivo, rabbit", "settings": "male New Zealand White rabbits, 0.04 mL eye drop, concentration of 1% (w/v) or lower, maximum ocular hypotensive rate vs vehicle-treated contralateral eye", "description": "The compound of the present invention was administered to rabbits (New Zealand White, sex: male, 3 to 6 per group) and evaluated for its ocular hypotensive effect.\nEach test compound was dissolved in a vehicle 1 (1.04 g of sodium dihydrogen phosphate dihydrate and 0.5 g of sodium chloride dissolved in purified water and then adjusted to pH 7.0 with sodium hydroxide to make the total amount to 100 mL) or a vehicle 2 (2% (w/v) aqueous boric acid solution) to prepare a test compound solution with a predetermined concentration.\nThe intraocular pressures of the rabbits were measured using Tiolat TonoVet handheld tonometer immediately before administration of test compound. The test compound solution and the vehicle were dropped at a volume of 0.04 mL to one eye and the contralateral eye, respectively, and the intraocular pressures were measured over time in the same way as above. The rate of the intraocular pressure of the eye receiving the test compound solution to that of the eye receiving the vehicle was calculated as an ocular hypotensive rate.", "values": [{"smiles": "C[C@H](CNCCc1ccnc2ccccc12)NS(=O)(=O)c1ccc2cnccc2c1.Cl", "note": "[Example 65]", "Ocular hypotensive activity": "+ (maximum ocular hypotensive rate of 5% or more and less than 15%)"}, {"smiles": "C[C@H](CNCCc1ccco1)NS(=O)(=O)c1ccc2cnccc2c1.Cl", "note": "[Example 66, (R)—N-[1-{2-(furan-2-yl)ethylamino}propan-2-yl]isoquinoline-6-sulfonamide hydrochloride]", "Ocular hypotensive activity": "++ (maximum ocular hypotensive rate of 15% or more)"}, {"smiles": "C[C@H](CNCCc1ccoc1)NS(=O)(=O)c1ccc2cnccc2c1.Cl", "note": "[Example 67, (R)—N-[1-{2-(furan-3-yl)ethylamino}propan-2-yl]isoquinoline-6-sulfonamide hydrochloride]", "Ocular hypotensive activity": "++ (maximum ocular hypotensive rate of 15% or more)"}, {"smiles": "C[C@H](CNCCn1cncn1)NS(=O)(=O)c1ccc2cnccc2c1.Cl", "note": "[Example 68, (R)—N-[1-{2-(1H-1,2,4-triazol-1-yl)ethylamino}propan-2-yl]isoquinoline-6-sulfonamide hydrochloride]", "Ocular hypotensive activity": "+ (maximum ocular hypotensive rate of 5% or more and less than 15%)"}, {"smiles": "C[C@H](CNCCc1ccc(N)cc1)NS(=O)(=O)c1ccc2cnccc2c1.Cl.Cl.Cl", "note": "[Example 69, (R)—N-{1-(4-aminophenethylamino)propan-2-yl}isoquinoline-6-sulfonamide trihydrochloride]", "Ocular hypotensive activity": "++ (maximum ocular hypotensive rate of 15% or more)"}, {"smiles": "C[C@H](CNCCc1ccc(N(C)C)cc1)NS(=O)(=O)c1ccc2cnccc2c1.Cl", "note": "[Example 71, (R)—N-{1-(4-dimethylaminophenethylamino)propan-2-yl}isoquinoline-6-sulfonamide hydrochloride]", "Ocular hypotensive activity": "++ (maximum ocular hypotensive rate of 15% or more)"}, {"smiles": "C[C@H](CNCCc1ccc(NC(N)=O)cc1)NS(=O)(=O)c1ccc2cnccc2c1.Cl", "note": "[Example 72, (R)—N-{1-(4-ureidophenethylamino)propan-2-yl}isoquinoline-6-sulfonamide hydrochloride]", "Ocular hypotensive activity": "+ (maximum ocular hypotensive rate of 5% or more and less than 15%)"}, {"smiles": "C[C@H](CNCCC#N)NS(=O)(=O)c1ccc2cnccc2c1.Cl", "note": "[Example 73, (R)—N-{1-(2-cyanoethylamino)propan-2-yl}isoquinoline-6-sulfonamide hydrochloride]", "Ocular hypotensive activity": "++ (maximum ocular hypotensive rate of 15% or more)"}, {"smiles": "C[C@H](CNCCc1cc2ccccc2[nH]1)NS(=O)(=O)c1ccc2cnccc2c1.Cl", "note": "[Example 74, (R)—N-[1-{2-(1H-indol-2-yl)ethylamino}propan-2-yl]isoquinoline-6-sulfonamide hydrochloride]", "Ocular hypotensive activity": "++ (maximum ocular hypotensive rate of 15% or more)"}, {"smiles": "C[C@H](CNCCc1cc2ccccc2o1)NS(=O)(=O)c1ccc2cnccc2c1", "note": "[Example 75, (R)—N-[1-{(2-(benzofuran-2-yl)ethylamino}propan-2-yl]isoquinoline-6-sulfonamidedihydrochloride]", "Ocular hypotensive activity": "++ (maximum ocular hypotensive rate of 15% or more)"}, {"smiles": "C[C@H](CNCCc1ccc(F)cc1)NS(=O)(=O)c1cc2ccncc2cc1Br.Cl", "note": "[Example 76, (R)-7-bromo-N-{1-(4-fluorophenethylamino)propan-2-yl}-isoquinoline-6-sulfonamide hydrochloride]", "Ocular hypotensive activity": "++ (maximum ocular hypotensive rate of 15% or more)"}, {"smiles": "C[C@H](CNCCc1ccc(F)cc1)NS(=O)(=O)c1ccc2cnccc2c1Br.Cl", "note": "[Example 77, (R)-5-bromo-N-{1-(4-fluorophenethylamino)propan-2-yl}-isoquinoline-6-sulfonamide hydrochloride]", "Ocular hypotensive activity": "+ (maximum ocular hypotensive rate of 5% or more and less than 15%)"}, {"smiles": "C=C(C)CNC[C@@H](C)NS(=O)(=O)c1ccc2cnccc2c1.Cl", "note": "[Example 78, (R)—N-{1-(2-methylallylamino)propan-2-yl}isoquinoline-6-sulfonamide hydrochloride]", "Ocular hypotensive activity": "++ (maximum ocular hypotensive rate of 15% or more)"}, {"smiles": "Cc1ncsc1CCNC[C@@H](C)NS(=O)(=O)c1ccc2cnccc2c1", "note": "[Example 79, (R)—N-[1-{2-(4-methylthiazol-5-yl)ethylamino}propan-2-yl]isoquinoline-6-sulfonamide dihydrochloride]", "Ocular hypotensive activity": "++ (maximum ocular hypotensive rate of 15% or more)"}, {"smiles": "C[C@H](CNCCCc1c[nH]c2ccccc12)NS(=O)(=O)c1ccc2cnccc2c1", "note": "[Example 80, (R)—N-[1-{3-(1H-indol-3-yl)propylamino}propan-2-yl]isoquinoline-6-sulfonamide dihydrochloride]", "Ocular hypotensive activity": "++ (maximum ocular hypotensive rate of 15% or more)"}, {"smiles": "C[C@H](CNCCc1ccccn1)NS(=O)(=O)c1ccc2cnccc2c1.Cl", "note": "[Example 81, (R)—N-[1-{2-(pyridin-2-yl)ethylamino}propan-2-yl]isoquinoline-6-sulfonamide hydrochloride]", "Ocular hypotensive activity": "++ (maximum ocular hypotensive rate of 15% or more)"}, {"smiles": "C[C@H](CNCC(C)(O)c1ccccc1)NS(=O)(=O)c1ccc2cnccc2c1.Cl", "note": "(stereo partly drawn) [Example 85, N-{(2R)-1-(2-hydroxy-2-phenylpropylamino)propan-2-yl}isoquinoline-6-sulfonamide hydrochloride]", "Ocular hypotensive activity": "++ (maximum ocular hypotensive rate of 15% or more)"}, {"smiles": "C[C@H](CNCC(O)c1cccnc1)NS(=O)(=O)c1ccc2cnccc2c1", "note": "(stereo partly drawn) [Example 88, N-[(2R)-1-{2-hydroxy-2-(pyridin-3-yl)ethylamino}propan-2-yl]isoquinoline-6-sulfonamide dihydrochloride]", "Ocular hypotensive activity": "+ (maximum ocular hypotensive rate of 5% or more and less than 15%)"}, {"smiles": "C[C@H](CNCC(O)c1cccc(Cl)c1)NS(=O)(=O)c1ccc2cnccc2c1", "note": "(stereo partly drawn) [Example 91, N-[(2R)-1-{2-(3-chlorophenyl)-2-hydroxyethylamino}propan-2-yl]isoquinoline-6-sulfonamide dihydrochloride]", "Ocular hypotensive activity": "++ (maximum ocular hypotensive rate of 15% or more)"}, {"smiles": "C[C@H](CNCCc1ccc(-c2ccccc2)cc1)NS(=O)(=O)c1ccc2cnccc2c1", "note": "[Example 92, (R)—N-[1-{2-(biphenyl-4-yl)ethylamino}propan-2-yl]isoquinoline-6-sulfonamide dihydrochloride]", "Ocular hypotensive activity": "++ (maximum ocular hypotensive rate of 15% or more)"}, {"smiles": "C[C@H](CNCCc1ccc(-c2ccncc2)cc1)NS(=O)(=O)c1ccc2cnccc2c1", "note": "[Example 93, (R)—N-[1-{4-(pyridin-4-yl)phenethylamino}propan-2-yl]isoquinoline-6-sulfonamide trihydrochloride]", "Ocular hypotensive activity": "++ (maximum ocular hypotensive rate of 15% or more)"}, {"smiles": "C[C@H](CNCCc1c[nH]nn1)NS(=O)(=O)c1ccc2cnccc2c1.Cl", "note": "[Example 94, (R)—N-[1-{2-(1H-1,2,3-triazol-4-yl)ethylamino}propan-2-yl]isoquinoline-6-sulfonamide hydrochloride]", "Ocular hypotensive activity": "++ (maximum ocular hypotensive rate of 15% or more)"}, {"smiles": "C[C@H](CNCCc1nnn[nH]1)NS(=O)(=O)c1ccc2cnccc2c1", "note": "[Example 95, (R)—N-[1-{2-(1H-tetrazol-5-yl)ethylamino}propan-2-yl]isoquinoline-6-sulfonamide dihydrochloride]", "Ocular hypotensive activity": "+ (maximum ocular hypotensive rate of 5% or more and less than 15%)"}, {"smiles": "CCCCNC[C@@H](C)N(CC)S(=O)(=O)c1ccc2cnccc2c1.Cl", "note": "[Example 96, (R)—N-[1-(butylamino)propan-2-yl]-N-ethylisoquinoline-6-sulfonamide hydrochloride]", "Ocular hypotensive activity": "++ (maximum ocular hypotensive rate of 15% or more)"}, {"smiles": "C[C@H](CNCCc1ccccc1)N(CCO)S(=O)(=O)c1ccc2cnccc2c1", "note": "[Example 97, (R)—N-(2-hydroxyethyl)-N-{1-(phenethylamino)propan-2-yl}isoquinoline-6-sulfonamide dihydrochloride]", "Ocular hypotensive activity": "++ (maximum ocular hypotensive rate of 15% or more)"}, {"smiles": "C[C@H](CN(C)CCc1ccccc1)NS(=O)(=O)c1ccc2cnccc2c1", "note": "[Example 99, (R)—N-[1-{methyl(phenethyl)amino}propan-2-yl]isoquinoline-6-sulfonamide dihydrochloride]", "Ocular hypotensive activity": "++ (maximum ocular hypotensive rate of 15% or more)"}, {"smiles": "C[C@H](CN(CCc1ccccc1)C(=O)CN)NS(=O)(=O)c1ccc2cnccc2c1.Cl", "note": "[Example 100, (R)-2-amino-N-[2-(isoquinoline-6-sulfonamido)propyl]-N-phenylethylacetamide hydrochloride]", "Ocular hypotensive activity": "++ (maximum ocular hypotensive rate of 15% or more)"}, {"smiles": "C[C@H](CNC(=O)Cc1ccccc1)NS(=O)(=O)c1ccc2cnccc2c1.Cl", "note": "[Example 103, (R)—N-{2-(isoquinoline-6-sulfonamido)propyl}-2-phenylacetamide hydrochloride]", "Ocular hypotensive activity": "++ (maximum ocular hypotensive rate of 15% or more)"}, {"smiles": "C[C@H](CNCC(=O)c1ccccc1)NS(=O)(=O)c1ccc2cnccc2c1", "note": "[Example 104, (R)—N-{1-(2-oxo-2-phenylethylamino)propan-2-yl}isoquinoline-6-sulfonamide dihydrochloride]", "Ocular hypotensive activity": "++ (maximum ocular hypotensive rate of 15% or more)"}, {"smiles": "C[C@H](CNCC(O)COc1ccccc1)NS(=O)(=O)c1ccc2cnccc2c1", "note": "(stereo partly drawn) [Example 108, N-{(2R)-1-(2-hydroxy-3-phenoxypropylamino)propan-2-yl}isoquinoline-6-sulfonamide dihydrochloride]", "Ocular hypotensive activity": "++ (maximum ocular hypotensive rate of 15% or more)"}, {"smiles": "C[C@H](CNCCc1ccccc1)NS(=O)(=O)c1ccc2c(N)nccc2c1.Cl", "note": "[Example 109, (R)-1-amino-N-{1-(phenethylamino)propan-2-yl}isoquinoline-6-sulfonamide hydrochloride]", "Ocular hypotensive activity": "+ (maximum ocular hypotensive rate of 5% or more and less than 15%)"}]}]}
